Common to all, as to assay: cell-based
Assay [1] concerns the target T1, hNav1.7 (Homo sapiens, UniProt Q15858). It counts as cell-based. Conditions: for Nav1.4/Nav1.7 / Nav1.5/Nav1.7: ratio of PX tonic IC50 values, Table 11.
The target in assay [2] is T2, hNav1.4 (Homo sapiens, UniProt P35499). It counts as cell-based. The following applies: for IC50: IonWorks Quattro, read-out: IC50 (μM) Nav1.4; for Nav1.4/Nav1.7: ratio of IonWorks Quattro IC50 values. On the technique in general: The patch-clamp technique gives a direct electrical read-out from membranes.
T2 sequence (P35499 whole entry): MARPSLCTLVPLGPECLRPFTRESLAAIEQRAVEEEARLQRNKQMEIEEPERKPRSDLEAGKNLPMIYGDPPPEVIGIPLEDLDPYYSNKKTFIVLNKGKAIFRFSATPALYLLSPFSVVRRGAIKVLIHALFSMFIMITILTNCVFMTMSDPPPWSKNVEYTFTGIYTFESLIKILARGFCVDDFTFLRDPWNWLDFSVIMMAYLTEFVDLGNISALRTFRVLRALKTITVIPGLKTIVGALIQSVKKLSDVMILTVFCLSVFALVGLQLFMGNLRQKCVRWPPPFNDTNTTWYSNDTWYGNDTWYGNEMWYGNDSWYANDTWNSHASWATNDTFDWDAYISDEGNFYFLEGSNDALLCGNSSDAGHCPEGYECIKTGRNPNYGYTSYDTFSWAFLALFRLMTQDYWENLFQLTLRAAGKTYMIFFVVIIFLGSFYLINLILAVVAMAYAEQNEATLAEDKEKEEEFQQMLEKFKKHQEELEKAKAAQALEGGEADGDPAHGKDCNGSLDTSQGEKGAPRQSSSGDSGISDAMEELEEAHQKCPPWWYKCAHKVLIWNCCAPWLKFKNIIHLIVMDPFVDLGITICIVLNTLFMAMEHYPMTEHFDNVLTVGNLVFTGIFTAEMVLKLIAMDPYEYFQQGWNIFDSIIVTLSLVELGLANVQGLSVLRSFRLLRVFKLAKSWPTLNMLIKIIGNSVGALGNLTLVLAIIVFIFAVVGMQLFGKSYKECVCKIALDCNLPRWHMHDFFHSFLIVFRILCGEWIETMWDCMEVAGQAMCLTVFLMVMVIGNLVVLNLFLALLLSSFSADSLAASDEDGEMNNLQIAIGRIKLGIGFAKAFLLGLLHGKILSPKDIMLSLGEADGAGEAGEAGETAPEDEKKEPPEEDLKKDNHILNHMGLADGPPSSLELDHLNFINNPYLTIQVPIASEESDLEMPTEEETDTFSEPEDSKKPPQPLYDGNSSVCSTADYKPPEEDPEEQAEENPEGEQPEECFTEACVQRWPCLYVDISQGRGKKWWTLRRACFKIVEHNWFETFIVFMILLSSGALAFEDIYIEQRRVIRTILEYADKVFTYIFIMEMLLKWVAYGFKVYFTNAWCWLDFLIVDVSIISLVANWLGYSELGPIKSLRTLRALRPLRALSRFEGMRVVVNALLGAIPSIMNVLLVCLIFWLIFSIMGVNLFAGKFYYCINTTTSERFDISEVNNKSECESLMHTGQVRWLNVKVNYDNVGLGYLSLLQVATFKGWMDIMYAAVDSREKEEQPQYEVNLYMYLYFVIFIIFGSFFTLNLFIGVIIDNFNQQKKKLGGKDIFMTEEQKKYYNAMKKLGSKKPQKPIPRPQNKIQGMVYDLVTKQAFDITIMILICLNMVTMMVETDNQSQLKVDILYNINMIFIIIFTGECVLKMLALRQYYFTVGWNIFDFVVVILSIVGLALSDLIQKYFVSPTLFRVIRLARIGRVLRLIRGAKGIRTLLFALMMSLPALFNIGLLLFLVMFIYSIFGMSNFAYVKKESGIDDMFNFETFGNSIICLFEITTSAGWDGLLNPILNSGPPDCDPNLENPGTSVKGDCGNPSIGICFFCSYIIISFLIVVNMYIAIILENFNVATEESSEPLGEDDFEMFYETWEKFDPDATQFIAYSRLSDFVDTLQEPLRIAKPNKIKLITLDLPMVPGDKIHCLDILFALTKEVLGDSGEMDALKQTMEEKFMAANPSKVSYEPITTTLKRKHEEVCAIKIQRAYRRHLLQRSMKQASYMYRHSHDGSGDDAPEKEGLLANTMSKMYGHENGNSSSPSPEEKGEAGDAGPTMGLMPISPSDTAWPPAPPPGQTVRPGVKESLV
Assay [3] addresses T1, hNav1.7. Conditions: for IC50: read-out: IC50 (μM) Nav1.7.
For the next assay, the target named is hNav1.3 (Homo sapiens, UniProt Q9NY46). Conditions: IonWorks Quattro, read-out: IC50 (μM) Nav1.3.
For a further assay, the target named is hNav1.5 (Homo sapiens, UniProt Q14524). Conditions: IonWorks Quattro, read-out: IC50 (μM) Nav1.5.
Sequence of hNav1.5 (Q14524 whole entry): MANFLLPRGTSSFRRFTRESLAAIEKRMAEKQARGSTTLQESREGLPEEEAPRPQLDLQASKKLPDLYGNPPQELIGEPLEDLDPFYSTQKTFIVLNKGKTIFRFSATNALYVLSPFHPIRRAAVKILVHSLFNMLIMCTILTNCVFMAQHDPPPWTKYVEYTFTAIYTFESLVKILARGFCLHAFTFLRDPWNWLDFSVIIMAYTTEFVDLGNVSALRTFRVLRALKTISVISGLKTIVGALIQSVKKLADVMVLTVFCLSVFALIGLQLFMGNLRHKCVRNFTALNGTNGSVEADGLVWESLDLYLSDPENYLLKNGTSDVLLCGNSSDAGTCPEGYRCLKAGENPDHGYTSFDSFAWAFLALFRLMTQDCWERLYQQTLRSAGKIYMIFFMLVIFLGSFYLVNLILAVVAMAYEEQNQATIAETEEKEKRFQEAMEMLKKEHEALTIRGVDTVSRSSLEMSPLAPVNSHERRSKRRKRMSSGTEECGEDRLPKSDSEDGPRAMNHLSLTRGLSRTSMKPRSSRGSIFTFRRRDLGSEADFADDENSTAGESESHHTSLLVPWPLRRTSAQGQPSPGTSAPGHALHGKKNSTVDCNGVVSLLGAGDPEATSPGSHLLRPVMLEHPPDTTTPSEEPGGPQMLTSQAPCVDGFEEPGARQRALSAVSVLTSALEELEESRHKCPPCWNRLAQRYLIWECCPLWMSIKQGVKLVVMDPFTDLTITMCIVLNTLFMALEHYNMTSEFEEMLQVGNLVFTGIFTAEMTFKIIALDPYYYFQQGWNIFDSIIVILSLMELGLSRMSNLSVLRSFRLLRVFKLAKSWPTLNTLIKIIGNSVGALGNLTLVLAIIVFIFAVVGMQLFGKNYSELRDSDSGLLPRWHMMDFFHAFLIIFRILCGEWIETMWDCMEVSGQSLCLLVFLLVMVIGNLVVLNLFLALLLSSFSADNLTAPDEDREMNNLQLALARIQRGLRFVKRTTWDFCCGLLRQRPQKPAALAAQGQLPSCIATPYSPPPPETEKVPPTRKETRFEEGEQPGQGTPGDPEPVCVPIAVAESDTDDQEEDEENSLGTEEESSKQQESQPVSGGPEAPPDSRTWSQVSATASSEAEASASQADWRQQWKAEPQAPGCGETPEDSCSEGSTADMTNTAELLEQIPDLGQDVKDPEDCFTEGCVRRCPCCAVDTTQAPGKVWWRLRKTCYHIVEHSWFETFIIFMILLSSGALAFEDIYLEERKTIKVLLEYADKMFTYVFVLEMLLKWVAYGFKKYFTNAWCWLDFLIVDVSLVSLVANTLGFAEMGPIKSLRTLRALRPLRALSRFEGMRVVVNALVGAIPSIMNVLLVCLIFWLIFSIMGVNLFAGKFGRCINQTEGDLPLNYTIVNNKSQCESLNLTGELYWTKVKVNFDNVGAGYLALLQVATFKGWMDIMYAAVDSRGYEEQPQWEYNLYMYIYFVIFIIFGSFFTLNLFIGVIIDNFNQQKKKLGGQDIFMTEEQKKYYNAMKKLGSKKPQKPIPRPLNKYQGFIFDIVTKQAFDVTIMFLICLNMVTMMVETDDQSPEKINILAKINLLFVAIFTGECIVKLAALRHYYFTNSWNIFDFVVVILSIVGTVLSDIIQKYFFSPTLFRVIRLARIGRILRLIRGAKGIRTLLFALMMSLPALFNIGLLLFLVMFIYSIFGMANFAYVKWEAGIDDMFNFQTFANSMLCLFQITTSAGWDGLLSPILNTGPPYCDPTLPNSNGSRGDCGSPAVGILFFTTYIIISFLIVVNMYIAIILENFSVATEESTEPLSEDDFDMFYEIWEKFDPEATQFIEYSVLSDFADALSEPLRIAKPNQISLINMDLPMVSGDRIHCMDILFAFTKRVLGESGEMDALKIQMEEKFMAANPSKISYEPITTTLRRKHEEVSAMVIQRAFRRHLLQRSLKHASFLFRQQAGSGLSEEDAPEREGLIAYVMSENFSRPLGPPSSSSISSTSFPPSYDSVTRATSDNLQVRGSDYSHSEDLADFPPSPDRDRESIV
The target in assay [4] is T2, hNav1.4. It counts as cell-based. Conditions: PX.

Read-outs that look alike come from different tables or passages of the source. Bounds are passed on as bounds.

For the compound `CC[C@H](C)[C@H](NC(=O)[C@@H](NC(=O)[C@H](CCCCN)NC(=O)[C@H](CCCNC(=N)N)NC(=O)[C@@H]1CSSC[C@@H]2NC(=O)[C@H](C)NC(=O)[C@H](CCCNC(=N)N)NC(=O)[C@H](CCCCN)NC(=O)[C@H](CO)NC(=O)[C@H](CC(=O)O)NC(=O)[C@@H]3CSSC[C@H](NC(=O)[C@H](C)NC(=O)[C@H](CC(C)C)NC(=O)CNC(=O)[C@H](CCC(=O)O)NC(=O)[C@H](CSSC[C@H](NC(=O)[C@@H](N)Cc4ccc(O)cc4)C(=O)N[C@@H](CCC(N)=O)C(=O)N[C@@H](CCCCN)C(=O)N[C@@H](Cc4c[nH]c5ccccc45)C(=O)N[C@@H](CCSC)C(=O)N[C@@H](Cc4c[nH]c5ccccc45)C(=O)N[C@@H]([C@@H](C)O)C(=O)N3)NC2=O)C(=O)N[C@@H](CCCCN)C(=O)N[C@@H](CC(C)C)C(=O)N[C@@H](Cc2c[nH]c3ccccc23)C(=O)N1)[C@@H](C)CC)C(N)=O` [compound 17], the Nav1.4/Nav1.7 at hNav1.7 [1] is 8; at hNav1.4 [2] (Table 6), 46. Also, the Nav1.5/Nav1.7 on hNav1.7 [1] stood at 229. For the same compound, the half-maximal inhibitory concentration (IC50) (usually the concentration needed to halve the response being measured) was 0.42 µM at hNav1.4 [2] (Table 6), 0.009 µM at hNav1.7 [3], 0.26 µM at hNav1.3 (Table 6) and greater than 5 µM on hNav1.5 (Table 6).
For the compound `CC[C@H](C)[C@H](NC(=O)[C@@H](NC(=O)[C@H](CCCCN)NC(=O)[C@H](CCCNC(=N)N)NC(=O)[C@@H]1CSSC[C@@H]2NC(=O)[C@H](C)NC(=O)[C@H](CCCNC(=N)N)NC(=O)[C@H](CCCCN)NC(=O)[C@H](CO)NC(=O)[C@H](CC(=O)O)NC(=O)[C@@H]3CSSC[C@H](NC(=O)[C@H](CCCNC(=N)N)NC(=O)[C@H](CC(C)C)NC(=O)CNC(=O)[C@H](CCC(=O)O)NC(=O)[C@H](CSSC[C@H](NC(=O)[C@@H](N)Cc4ccc(O)cc4)C(=O)N[C@@H](CCC(N)=O)C(=O)N[C@@H](CCCCN)C(=O)N[C@@H](Cc4c[nH]c5ccccc45)C(=O)N[C@@H](CCSC)C(=O)N[C@@H](Cc4cccc5ccccc45)C(=O)N[C@@H]([C@@H](C)O)C(=O)N3)NC2=O)C(=O)N[C@@H](CCCCN)C(=O)N[C@@H](CC(C)C)C(=O)N[C@@H](Cc2c[nH]c3ccccc23)C(=O)N1)[C@@H](C)CC)C(N)=O` [compound 30], the values for the Nav1.4/Nav1.7 at hNav1.7 [1] and on hNav1.4 [2] (Table 6) were 2 and 9, respectively. In addition, the Nav1.5/Nav1.7 on hNav1.7 [1] was determined as 3550. Besides, the IC50 amounted to 0.12 µM at hNav1.4 [2] (Table 6), 0.013 µM at hNav1.7 [3], 0.1 µM at hNav1.3 (Table 6) and 3.6 µM at hNav1.5 (Table 6).
Take `CC[C@H](C)[C@H](NC(=O)[C@@H](NC(=O)[C@H](CCCCN)NC(=O)[C@H](CCCNC(=N)N)NC(=O)[C@@H]1CSSC[C@@H]2NC(=O)[C@H](C)NC(=O)[C@H](CCCNC(=N)N)NC(=O)[C@H](CCCCN)NC(=O)[C@H](CO)NC(=O)[C@H](CC(=O)O)NC(=O)[C@@H]3CSSC[C@H](NC(=O)[C@H](CCCNC(=N)N)NC(=O)[C@H](CC(C)C)NC(=O)CNC(=O)[C@H](CCC(=O)O)NC(=O)[C@H](CSSC[C@H](NC(=O)[C@@H](N)CCC(=O)O)C(=O)N[C@@H](CCC(N)=O)C(=O)N[C@@H](CCCCN)C(=O)N[C@@H](Cc4c[nH]c5ccccc45)C(=O)N[C@@H](CCSC)C(=O)N[C@@H](Cc4c[nH]c5ccccc45)C(=O)N[C@@H]([C@@H](C)O)C(=O)N3)NC2=O)C(=O)N[C@@H](CCCCN)C(=O)N[C@@H](CC(C)C)C(=O)N[C@@H](Cc2c[nH]c3ccccc23)C(=O)N1)[C@@H](C)CC)C(N)=O` [compound 49]: the Nav1.4/Nav1.7 at hNav1.7 [1] amounted to 27; at hNav1.4 [2] (Table 6) it was 13. On hNav1.7 [1], the Nav1.5/Nav1.7 was found to be 21467. The IC50 was 0.23 µM at hNav1.4 [2] (Table 6), 0.018 µM on hNav1.7 [3], 0.16 µM at hNav1.3 (Table 6) and greater than 5 µM on hNav1.5 (Table 6).
Turning to `CC[C@H](C)[C@H](NC(=O)[C@@H](NC(=O)[C@H](CCCCN)NC(=O)[C@H](CCCNC(=N)N)NC(=O)[C@@H]1CSSC[C@@H]2NC(=O)[C@H](C)NC(=O)[C@H](CCCNC(=N)N)NC(=O)[C@H](CCCCN)NC(=O)[C@H](CO)NC(=O)[C@H](CC(=O)O)NC(=O)[C@@H]3CSSC[C@H](NC(=O)[C@H](CCC(=O)O)NC(=O)[C@H](CC(C)C)NC(=O)CNC(=O)[C@H](CCC(=O)O)NC(=O)[C@H](CSSC[C@H](NC(=O)[C@@H](N)Cc4ccc(O)cc4)C(=O)N[C@@H](CCC(N)=O)C(=O)N[C@@H](CCCCN)C(=O)N[C@@H](Cc4c[nH]c5ccccc45)C(=O)N[C@@H](CCSC)C(=O)N[C@@H](Cc4c[nH]c5ccccc45)C(=O)N[C@@H]([C@@H](C)O)C(=O)N3)NC2=O)C(=O)N[C@@H](CCCCN)C(=O)N[C@@H](CC(C)C)C(=O)N[C@@H](Cc2c[nH]c3ccccc23)C(=O)N1)[C@@H](C)CC)C(N)=O` [compound 63], the “selectivity against hNav1.4 relative to hNav1.7” value on hNav1.4 [4] is “greater than 1000 fold”. For the same compound, the Nav1.4/Nav1.7 was found to be 179 at hNav1.7 [1]; 63 on hNav1.4 [2] (Table 6); 14 at hNav1.7 [3] (ratio of IonWorks Quattro IC50 values, Nav1.4 over Nav1.7). In addition, the Nav1.5/Nav1.7 at hNav1.7 [1] worked out at 1333. Moreover, the IC50 at hNav1.4 [2] (Table 6) is 4.6 µM; on hNav1.7 [3] it was 0.073 µM; on hNav1.3 (Table 6), 2.5 µM; at hNav1.5 (Table 6), greater than 5 µM.
As to `CCCC[C@@H]1NC(=O)[C@H](Cc2c[nH]c3ccccc23)NC(=O)[C@H](CCCCN)NC(=O)[C@H](CCC(N)=O)NC(=O)[C@@H](NC(=O)[C@@H](N)Cc2ccc(O)cc2)CSSC[C@@H]2NC(=O)[C@@H]3CSSC[C@@H](C(=O)N[C@@H](CCCNC(=N)N)C(=O)N[C@@H](CCCCN)C(=O)N[C@H](C(=O)N[C@H](C(N)=O)[C@@H](C)CC)[C@@H](C)CC)NC(=O)[C@H](Cc4c[nH]c5ccccc45)NC(=O)[C@H](Cc4cn(CCCOCCOCCOCCOCCOCCOCCOCCOCCOCCOCCN)nn4)NC(=O)[C@H](CCCCN)NC(=O)[C@H](CSSC[C@H](NC(=O)[C@H]([C@@H](C)O)NC(=O)[C@H](Cc4c[nH]c5ccccc45)NC1=O)C(=O)N[C@@H](CC(=O)O)C(=O)N[C@@H](CO)C(=O)N[C@@H](CCCCN)C(=O)N[C@@H](CCCNC(=N)N)C(=O)N[C@@H](C)C(=O)N3)NC(=O)[C@H](CCCNC(=N)N)NC(=O)[C@H](CC(C)C)NC(=O)CNC(=O)[C@H](CCC(=O)O)NC2=O` [compound 265], the IC50 at hNav1.4 [2] (Table 9) is greater than 7 µM; at hNav1.7 [3] (IonWorks Quattro, […]) it was 4.8 µM; on hNav1.3 (Table 9) it was 5.6 µM; at hNav1.5 (Table 9), greater than 7 µM.
In the case of `CCCC[C@@H]1NC(=O)[C@H](Cc2c[nH]c3ccccc23)NC(=O)[C@H](CCCCN)NC(=O)[C@H](CCC(N)=O)NC(=O)[C@@H](NC(=O)[C@@H](N)Cc2ccc(O)cc2)CSSC[C@@H]2NC(=O)[C@@H]3CSSC[C@@H](C(=O)N[C@@H](CCCNC(=N)N)C(=O)N[C@@H](CCCCN)C(=O)N[C@H](C(=O)N[C@@H](Cc4cn(CCCOCCOCCOCCOCCOCCOCCOCCOCCOCCOCCN)nn4)C(N)=O)[C@@H](C)CC)NC(=O)[C@H](Cc4c[nH]c5ccccc45)NC(=O)[C@H](CC(C)C)NC(=O)[C@H](CCCCN)NC(=O)[C@H](CSSC[C@H](NC(=O)[C@H]([C@@H](C)O)NC(=O)[C@H](Cc4c[nH]c5ccccc45)NC1=O)C(=O)N[C@@H](CC(=O)O)C(=O)N[C@@H](CO)C(=O)N[C@@H](CCCCN)C(=O)N[C@@H](CCCNC(=N)N)C(=O)N[C@@H](C)C(=O)N3)NC(=O)[C@H](CCCNC(=N)N)NC(=O)[C@H](CC(C)C)NC(=O)CNC(=O)[C@H](CCC(=O)O)NC2=O` [compound 270], the IC50 was 22 nM at hNav1.7 [1] (read-out: PX hNav1.7 Tonic IC50); 0.75 µM on hNav1.4 [2] (Table 9); 0.4 µM on hNav1.7 [3] (IonWorks Quattro, […]); 3.9 µM at hNav1.3 (Table 9); greater than 7 µM on hNav1.5 (Table 9). Also, on hNav1.4 [2] (Table 9), the Nav1.4/Nav1.7 turned out to be 2.

The values are drawn from patent US10344060B2 (priority 2013, dated 2019).
